Measurements reported in article PMC5190008, “BO-1055, a novel DNA cross-linking agent with remarkable low myelotoxicity shows potent activity in sarcoma models” (Oncotarget, 2016).

Assays:
A673 xenografts = A673 xenografts in NSG mice; type: in vivo; conditions: 10mg/kg
Procedure: All mouse experiments were performed at the animal core facility at MSKCC under an approved protocol following the IACUC guidelines. Five to seven-week-old NOD/SCID IL2R gamma null (NSG) mice (bred at the Mouse Genetics Core Facility, MSKCC) were used for in vivo experiments. All mouse experiments were done following the IACUC guidelines at the animal facility at MSKCC. Tumors were induced using 10^6 A673 cells or A204 cells in 0.2ml 1:1 cellular medium, Matrigel matrix (BD Bioscience, Bedford, MA) and injected subcutaneously (s.q) into the right flank. The tumors were measured every 3 d with a caliper, and the diameters were recorded. Tumor volume was calculated by the formula a^2 b/2 where ‘a’ is the smallest and ‘b’ is the largest diameter. When the tumors reached 100mm^3, we randomized mice into control and drug treatment groups. Treatment groups received BO-1055 by tail vein injection at 10mg/kg, 20mg/kg and 30mg/kg q2d x 5 doses for mice bearing A673 xenografts. BO-1055 was given at 30mg/kg q2d x 5 doses for mice bearing A204 xenografts. De-identified patient tumor tissues were obtained in accordance with and approval from the MSKCC Institutional Review Board (IRB). Appropriate written consent and assent were obtained from the patients prior to sample collection. Patient derived xenografts were developed in NSG mice (second passage) from a patient with relapsed Ewing sarcoma, who was treated with two alkylating agents- cyclophosphamide and ifosfamide as part of a multi-agent chemotherapy prior to relapse. When the tumors reached 100mm^2, we randomized mice into control and drug treatment groups. Mice in the control groups received PBS injections while mice in the drug treatment group received the maximum tolerated dose (MTD) of cyclophosphamide 70mg/kg i.p. q2d x 3 (shown by shorter arrows) (Figure 5D). Tumor growth was not inhibited in the cyclophosphamide treated mice. When the tumors reached a size greater than 500mm^3, we started treatment with BO-1055 at a dose of 30mg/kg i.v. q2d x 4 doses (shown by longer arrows in Figure 4F). […]

leukemia cell lines = system: leukemia cell lines; design: method as in PMID 21106377; conditions: leukemia cell lines ref 6; cited from earlier work
Ewing sarcoma cell lines = assay: Alamar Blue cell proliferation assay; type: cell-based, human
Procedure: (§1) AlamarBlue® assay (Invitrogen, Carlsbad, CA, USA) was performed to evaluate anti-proliferative activity of the drugs in cell lines and primary cells. Cells were plated in 96-well plates ([…] in 200 μL of medium). After 12 h, one of the previously mentioned drugs was added to each well at the specified concentration and incubated for 72 h. At the end of the incubation period, 20 μL of stock solution (0.312 mg/mL) of the Alamar Blue was added to each well. The absorbance was measured using the Synergy H1 hybrid multi-mode microplate reader (BioTek, USA). The drug effect was quantified as the percentage of control absorbance at 540 nm and 585 nm. Optical density was determined for 3 replicates per treatment condition and cell proliferation in drug-treated cells was normalized to their respective controls. All experiments were performed in triplicate.
(§2) Data are presented as mean±S.E.M. of at least three independent experiments done in triplicate. […] Combination index (CI) values, as calculated by CompuSyn software (Chou and Martin, 2007), were used to evaluate the interaction between BO-1055 and a second drug (Topotecan, SN38, Doxorubicin or PU-H71). The Chou-Talalay method was used to quantify the synergism (CI < 1), additive effect (CI = 1) and antagonism (CI > 1) of various drug combinations.

[1] = system: rhabdomyosarcoma cell lines; assay: Alamar Blue cell proliferation assay; type: cell-based, human
Procedure: as §1, §2

[2] = system: patient derived Ewing sarcoma xenografts; assay: Cyclophosphamide resistant patient-derived Ewing sarcoma xenografts; type: in vivo, NSG mice; conditions: 30mg/kg/dose i.v. q2d x 4, tumors progressed to 500mm^3 after MTD cyclophosphamide
Procedure: Patient derived xenografts were established from Ewing sarcoma patients who progressed through first line chemotherapy that included cyclophosphamide, doxorubicin, vincristine, ifosfamide and etoposide (PS3). When these Ewing sarcoma xenografts (n = 10) reached 100mm^3, they were randomized to control and treatment groups.
All mouse experiments were performed at the animal core facility at MSKCC under an approved protocol following the IACUC guidelines. Five to seven-week-old NOD/SCID IL2R gamma null (NSG) mice (bred at the Mouse Genetics Core Facility, MSKCC) were used for in vivo experiments. All mouse experiments were done following the IACUC guidelines at the animal facility at MSKCC. Tumors were induced using 10^6 A673 cells or A204 cells in 0.2ml 1:1 cellular medium, Matrigel matrix (BD Bioscience, Bedford, MA) and injected subcutaneously (s.q) into the right flank. The tumors were measured every 3 d with a caliper, and the diameters were recorded. Tumor volume was calculated by the formula a^2 b/2 where ‘a’ is the smallest and ‘b’ is the largest diameter. When the tumors reached 100mm^3, we randomized mice into control and drug treatment groups. Treatment groups received BO-1055 by tail vein injection at 10mg/kg, 20mg/kg and 30mg/kg q2d x 5 doses for mice bearing A673 xenografts. BO-1055 was given at 30mg/kg q2d x 5 doses for mice bearing A204 xenografts. […]

[3] = system: patient derived Ewing sarcoma xenografts; assay: Combination in vivo study in Ewing sarcoma PDX; design: species or system NSG mice
Human MSC = assay: Comet assay; type: cell-based; conditions: 3h
Procedure: We used comet assay, which includes single cell gel electrophoresis to assess DNA breaks when exposed to radiation or DNA damaging agents. […] Olive moment (micrometers), a product of tail DNA% and the distance between the centroids of head and tail, is an accurate parameter of DNA damage. […] Gamma-H2AX (γH2AX) phosphorylation is the initial step in DNA damage response following double stranded breaks and is responsible for recruiting DNA repair proteins.
Comet assay was performed according to the protocol described earlier. Cells were treated with BO-1055 at 2μM concentration for 3h, or immediately after exposure to 8Gy radiation after which they were isolated and mixed with 1% low melting point agarose in a tube. The cells in agarose were transferred to slides coated with normal melting point agarose. The agarose-immobilized cells were lysed in alkaline solution and the agarose trapped DNA was electrophoresed. DNA was stained with ethidium bromide and image acquisition was done immediately. DNA damage quantification was performed using OpenComet v1.3, an open-source software plugin in Image J 1.47v software (NIH, USA) for automated analysis. Olive moment, which is the product of tail DNA% and the distance between the intensity-weighted centroids of head and tail was taken from the output for analysis.

[4] = 20mg/kg and 30mg/kg/dose q2d x 5

With `CN(C)CCNC(=O)c1cccc(NC(=O)Nc2ccc(N(CCCl)CCCl)cc2)c1` [BO-1055] the body weight (A673 xenografts; [4]) was “no significant decrease in body weight”, the survival (A673 xenografts; [4]) was “prolonged survival” and the tumor growth (A673 xenografts; 20mg/kg and 30mg/kg/dose q2d x 5, tail vein) was “inhibition of tumor growth”. For the same molecule, the “cross resistance to taxol or vinblastine” value (leukemia cell lines) was “little or no cross resistance”, the IC50 (Ewing sarcoma cell lines) was “submicromolar” and the IC50 [1] was “submicromolar”. For the same molecule, the tumor response [2] was “tumor regression”, the “tumor regression in combination group compared to single drug groups” value ([3]; BO-1055 IV plus Irinotecan IP, 10mg/kg/dose qd x 5 or 5mg/kg/dose qd x 5, day 14) was “significantly greater” and the “weight loss in combination group compared to single drug groups” value ([3]; BO-1055 plus Irinotecan) was “No significant weight loss”. The “olive moment relative to radiation (XRT, 8Gy)” value (Human MSC) was “relatively less”.
